What was measured:
bamyardgrass = test: Test B flood test barnyardgrass; assay type: in vivo, Echinochloa crus-galli
In short: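 Plants were grown to the 2-leaf stage before treatment with test chemical, then held in a greenhouse for twelve to sixteen days. Injury was visually rated against untreated controls on a 0–10 scale, where 0 is no effect and 10 is complete control.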

surinam grass = test: Test B pre/postemergence surinam grass; assay type: in vivo, Brachiaria decumbens
In short: (§1)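 Test chemicals in a non-phytotoxic solvent mixture with surfactant were sprayed preemergence onto planted seeds and postemergence onto plants 2 to 18 cm tall (1- to 4-leaf stage). After twelve to sixteen days in a greenhouse, injury was visually rated against untreated controls from 0 (no effect) to 10 (complete control).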

bedstraw = test: Test B pre/postemergence bedstraw; assay type: in vivo, Galium aparine
In short: as §1

wild oat = test: Test B pre/postemergence wild oat; assay type: in vivo, Avena fatua
In short: as §1

[1] = Postemergence, Rate 62 g/ha, scale 0 to 10, 0 is no effect, 10 is complete control
[2] = Rate 125 g/ha, Postemergence section (flood test species), scale 0 to 10, 0 no effect, 10 complete control
[3] = Rate 500 g/ha, listed under Postemergence (flood test species), scale 0 to 10, 0 no effect, 10 complete control
[4] = flood test, listed under Postemergence, Rate 250 g/ha, scale 0 to 10, 0 no effect, 10 complete control
[5] = Postemergence, Rate 250 g/ha, scale 0 to 10, 0 no effect, 10 complete control
[6] = Preemergence, Rate 62 g/ha, scale 0 to 10 (0 no effect, 10 complete control)
[7] = Preemergence, Rate 125 g/ha, scale 0 to 10 (0 no effect, 10 complete control)
[8] = Preemergence, Rate 250 g/ha, scale of 0 to 10 where 0 is no effect and 10 is complete control
[9] = Preemergence, Rate 500 g/ha, scale 0 (no effect) to 10 (complete control)
[10] = Rate 125 g/ha, Postemergence, scale 0 to 10, 0 no effect, 10 complete control
[11] = Rate 500 g/ha, Postemergence, scale of 0 to 10 where 0 is no effect and 10 is complete control
[12] = Rate 500 g/ha, Postemergence, scale 0 to 10, 0 no effect, 10 complete control

Compound	B. signalgrass plant response rating (surinam grass; [1])	B. signalgrass plant response rating (surinam grass; [5])	B. signalgrass plant response rating (surinam grass; [6])	Plant response rating, B. signalgrass (surinam grass; [7])	Plant response rating, B. signalgrass (surinam grass; [8])	B. signalgrass plant response rating (surinam grass; [9])	B. signalgrass plant response rating (surinam grass; [10])	B. signalgrass plant response rating (surinam grass; [11])	Bedstraw plant response rating (bedstraw; [1])	Bedstraw plant response rating (bedstraw; [5])	Bedstraw plant response rating (bedstraw; [6])	Plant response rating, Bedstraw (bedstraw; [7])	Plant response rating, Bedstraw (bedstraw; [8])	Bedstraw plant response rating (bedstraw; [10])	Wild oats plant response rating (wild oat; [1])	Wild oats plant response rating (wild oat; [5])	Wild oats plant response rating (wild oat; [6])	Plant response rating, Wild oats (wild oat; [7])	Plant response rating, Wild oats (wild oat; [8])	Wild oats plant response rating (wild oat; [9])	other results
Cc1cc(C)c(-n2c(=O)on(C(=O)N(c3ccc(Cl)cc3)C(C)C)c2=O)c(C)c1 [Compound 61]	0	0	0	1	5	5	0	1	2	6	0	0	2	3	0	0	0	0	0	3	Barnyardgrass plant response rating (bamyardgrass; [1]): 0; Barnyardgrass plant response rating (bamyardgrass; [2]): 0; Barnyardgrass plant response rating (bamyardgrass; [3]): 0; Barnyardgrass plant response rating (bamyardgrass; [4]): 0; Bedstraw plant response rating (bedstraw; [9]): 2; Wild oats plant response rating (wild oat; [10]): 0; Wild oats plant response rating (wild oat; [12]): 0
Cc1cccc(C(C)C)c1-n1c(=O)on(C(=O)N(c2ccc(Cl)cc2)C(C)C)c1=O [Compound 64]	0	0	0	0	0	0	0	0	0	0	0	0	0	0	0	0	0	0	0	0	Barnyardgrass plant response rating (bamyardgrass; [1]): 0; Barnyardgrass plant response rating (bamyardgrass; [2]): 0; Barnyardgrass plant response rating (bamyardgrass; [3]): 0; Barnyardgrass plant response rating (bamyardgrass; [4]): 0; Bedstraw plant response rating (bedstraw; [12]): 0; Wild oats plant response rating (wild oat; [10]): 0; Wild oats plant response rating (wild oat; [12]): 0
Cc1cccc(C(C)C)c1-n1c(=O)on(C(=O)N(c2ccc(F)cc2)C(C)C)c1=O [Compound 65]	0	0	0	0	0	0	0	0	0	0	0	0	2	0	0	0	0	0	0	0	Barnyardgrass plant response rating (bamyardgrass; [1]): 0; Barnyardgrass plant response rating (bamyardgrass; [2]): 0; Barnyardgrass plant response rating (bamyardgrass; [3]): 2; Barnyardgrass plant response rating (bamyardgrass; [4]): 0; Bedstraw plant response rating (bedstraw; [9]): 3; Bedstraw plant response rating (bedstraw; [12]): 0; Wild oats plant response rating (wild oat; [10]): 0; Wild oats plant response rating (wild oat; [12]): 0
CCN(Cc1ccccc1)C(=O)n1oc(=O)n(-c2c(C)cccc2C)c1=O [Compound 70]	0	0	0	0	0	0	0	0	0	0	0	0	0	0	0	0	0	0	0	0	Barnyardgrass plant response rating (bamyardgrass; Rate 62 g/ha, headed Pre-emergence (flood test species), scale 0 to 10 (0 no effect, 10 complete control)): 0; Barnyardgrass plant response rating (bamyardgrass; Rate 125 g/ha, Pre-emergence, flood test species, scale 0 to 10 where 0 is no effect and 10 is complete control): 0; Barnyardgrass plant response rating (bamyardgrass; Rate 250 g/ha, headed Pre-emergence (flood test species), scale 0 to 10 (0 no effect, 10 complete control)): 0; Plant response rating, Barnyardgrass (bamyardgrass; Rate 500 g/ha, headed Pre-emergence (flood test species), scale 0 to 10 (0 no effect, 10 complete control)): 0; Bedstraw plant response rating (bedstraw; [9]): 0; Bedstraw plant response rating (bedstraw; [12]): 0; Wild oats plant response rating (wild oat; [10]): 0; Wild oats plant response rating (wild oat; [12]): 0
CC(C)N(C(=O)n1oc(=O)n(Cc2ccccc2)c1=O)c1ccc(F)cc1F [Compound 79]	0	0	2	0	3	5	0	0	3	7	0	0	0	3	0	0	0	0	3	4	Barnyardgrass plant response rating (bamyardgrass; [1]): 0; Barnyardgrass plant response rating (bamyardgrass; [2]): 0; Barnyardgrass plant response rating (bamyardgrass; [3]): 9; Barnyardgrass plant response rating (bamyardgrass; [4]): 3; Bedstraw plant response rating (bedstraw; [9]): 0; Bedstraw plant response rating (bedstraw; [12]): 8; Wild oats plant response rating (wild oat; [10]): 0; Wild oats plant response rating (wild oat; [12]): 0

Reference: patent US6737383B1, “Herbicidal oxadiazolidines” (priority 1999, dated 2004)
